Assay results as given in ChEMBL document CHEMBL3885881, “DrugMatrix”.

Species: Rattus norvegicus
Experiment: DrugMatrix - Regimen: Daily Repeat
Type: toxicity, organism-based, Sprague-Dawley
Set-up: regimen Daily Repeat, gender Male, age 6-8 weeks
Settings: in vivo, po, route oral GAVAGE, vehicle .5 % CMC; for ABSOLUTE BASOPHIL / ABSOLUTE EOSINOPHIL / ABSOLUTE LYMPHOCYTE / ABSOLUTE MONOCYTE / ABSOLUTE SEGMENTED NEUTROPHIL / BASOPHIL / EOSINOPHIL / ERYTHROCYTE COUNT / HEMATOCRIT / HEMOGLOBIN / LEUKOCYTE COUNT / LYMPHOCYTE / MEAN CORPUSCULAR HEMOGLOBIN / MEAN CORPUSCULAR HEMOGLOBIN CONCENTRATION / MEAN CORPUSCULAR VOLUME / MONOCYTE / NEUTROPHIL / NUCLEATED RED BLOOD CELLS / PLATELET COUNT: tissue Blood; for ALANINE AMINOTRANSFERASE / ALBUMIN / ALKALINE PHOSPHATASE / ASPARTATE AMINOTRANSFERASE / BLOOD UREA NITROGEN / CARBON DIOXIDE / CHLORIDE / CHOLESTEROL / CREATINE PHOSPHOKINASE / CREATININE / GLUCOSE / LACTATE DEHYDROGENASE / LIPASE / PHOSPHORUS / POTASSIUM / SODIUM / TOTAL BILIRUBIN / TOTAL PROTEIN / URIC ACID: tissue Plasma
[1] = 100 mg/kg, 120 h, dose level Low, time 5 day
[2] = 2500 mg/kg, 72 h, dose level High, time 3 day
[3] = 2500 mg/kg, 120 h, dose level High, time 5 day

NC(=O)CN1CCCC1=O
ABSOLUTE BASOPHIL [1]: 0 CELLS/uL
ABSOLUTE EOSINOPHIL [1]: 42 CELLS/uL
ABSOLUTE LYMPHOCYTE [1]: 9826.67 CELLS/uL
ABSOLUTE MONOCYTE [1]: 141.33 CELLS/uL
ABSOLUTE SEGMENTED NEUTROPHIL [1]: 823.33 CELLS/uL
BASOPHIL [1]: 0%
EOSINOPHIL [1]: 0.33%
ERYTHROCYTE COUNT [1]: 5.31 x10E6/uL
HEMATOCRIT [1]: 34.1%
HEMOGLOBIN [1]: 13.87 G/DL
LEUKOCYTE COUNT [1]: 10.83 x10E3/uL
LYMPHOCYTE [1]: 90.67%
MEAN CORPUSCULAR HEMOGLOBIN [1]: 26.1 pg
MEAN CORPUSCULAR HEMOGLOBIN CONCENTRATION [1]: 40.7 G/DL
MEAN CORPUSCULAR VOLUME [1]: 64.2 fL
MONOCYTE [1]: 1.33%
NEUTROPHIL [1]: 7.67%
NUCLEATED RED BLOOD CELLS [1]: 0 /100WBC
PLATELET COUNT [1]: 1439.67 x10E3/uL
ALANINE AMINOTRANSFERASE [1]: 57.33 u/L
ALBUMIN [1]: 4.37 G/DL
ALKALINE PHOSPHATASE [1]: 345.67 u/L
ASPARTATE AMINOTRANSFERASE [1]: 81.33 u/L
BLOOD UREA NITROGEN [1]: 14 mg/dL
CARBON DIOXIDE [1]: 31 mmol/L
CHLORIDE [1]: 101.33 MEQ/L
CHOLESTEROL [1]: 79 mg/dL
CREATINE PHOSPHOKINASE [1]: 221.33 u/L
CREATININE [1]: 0.2 mg/dL
GLUCOSE [1]: 137.33 mg/dL
LACTATE DEHYDROGENASE [1]: 190.33 u/L
LIPASE [1]: 10 u/L
PHOSPHORUS [1]: 12 mg/dL
POTASSIUM [1]: 6.54 MEQ/L
SODIUM [1]: 144.03 MEQ/L
TOTAL BILIRUBIN [1]: 0.23 mg/dL
TOTAL PROTEIN [1]: 6.17 G/DL
URIC ACID [1]: 1.2 mg/dL
ABSOLUTE BASOPHIL [2]: 0 CELLS/uL
ABSOLUTE EOSINOPHIL [2]: 0 CELLS/uL
ABSOLUTE LYMPHOCYTE [2]: 13503 CELLS/uL
ABSOLUTE MONOCYTE [2]: 41.67 CELLS/uL
ABSOLUTE SEGMENTED NEUTROPHIL [2]: 1822 CELLS/uL
BASOPHIL [2]: 0%
EOSINOPHIL [2]: 0%
ERYTHROCYTE COUNT [2]: 5.25 x10E6/uL
HEMATOCRIT [2]: 34.27%
HEMOGLOBIN [2]: 13.27 G/DL
LEUKOCYTE COUNT [2]: 15.37 x10E3/uL
LYMPHOCYTE [2]: 88.33%
MEAN CORPUSCULAR HEMOGLOBIN [2]: 25.33 pg
MEAN CORPUSCULAR HEMOGLOBIN CONCENTRATION [2]: 38.77 G/DL
MEAN CORPUSCULAR VOLUME [2]: 65.3 fL
MONOCYTE [2]: 0.33%
NEUTROPHIL [2]: 11.33%
NUCLEATED RED BLOOD CELLS [2]: 0 /100WBC
PLATELET COUNT [2]: 1334.33 x10E3/uL
ALANINE AMINOTRANSFERASE [2]: 49 u/L
ALBUMIN [2]: 3.97 G/DL
ALKALINE PHOSPHATASE [2]: 347.33 u/L
ASPARTATE AMINOTRANSFERASE [2]: 74 u/L
BLOOD UREA NITROGEN [2]: 20.67 mg/dL
CARBON DIOXIDE [2]: 31 mmol/L
CHLORIDE [2]: 102.67 MEQ/L
CHOLESTEROL [2]: 67.67 mg/dL
CREATINE PHOSPHOKINASE [2]: 351.33 u/L
CREATININE [2]: 0.18 mg/dL
GLUCOSE [2]: 147.33 mg/dL
LACTATE DEHYDROGENASE [2]: 239 u/L
LIPASE [2]: 9.67 u/L
PHOSPHORUS [2]: 12.57 mg/dL
POTASSIUM [2]: 6.21 MEQ/L
SODIUM [2]: 146 MEQ/L
TOTAL BILIRUBIN [2]: 0.2 mg/dL
TOTAL PROTEIN [2]: 5.7 G/DL
URIC ACID [2]: 1.4 mg/dL
ABSOLUTE BASOPHIL [3]: 0 CELLS/uL
ABSOLUTE EOSINOPHIL [3]: 37.33 CELLS/uL
ABSOLUTE LYMPHOCYTE [3]: 8603 CELLS/uL
ABSOLUTE MONOCYTE [3]: 37.33 CELLS/uL
ABSOLUTE SEGMENTED NEUTROPHIL [3]: 1055.67 CELLS/uL
BASOPHIL [3]: 0%
EOSINOPHIL [3]: 0.33%
ERYTHROCYTE COUNT [3]: 5.53 x10E6/uL
HEMATOCRIT [3]: 34.87%
HEMOGLOBIN [3]: 14.13 G/DL
LEUKOCYTE COUNT [3]: 9.73 x10E3/uL
LYMPHOCYTE [3]: 88.67%
MEAN CORPUSCULAR HEMOGLOBIN [3]: 25.6 pg
MEAN CORPUSCULAR HEMOGLOBIN CONCENTRATION [3]: 40.53 G/DL
MEAN CORPUSCULAR VOLUME [3]: 63.17 fL
MONOCYTE [3]: 0.33%
NEUTROPHIL [3]: 10.67%
NUCLEATED RED BLOOD CELLS [3]: 0 /100WBC
PLATELET COUNT [3]: 1291.33 x10E3/uL
ALANINE AMINOTRANSFERASE [3]: 61.33 u/L
ALBUMIN [3]: 4.27 G/DL
ALKALINE PHOSPHATASE [3]: 359.33 u/L
ASPARTATE AMINOTRANSFERASE [3]: 86.33 u/L
BLOOD UREA NITROGEN [3]: 18.33 mg/dL
CARBON DIOXIDE [3]: 28.67 mmol/L
CHLORIDE [3]: 101.67 MEQ/L
CHOLESTEROL [3]: 64 mg/dL
CREATINE PHOSPHOKINASE [3]: 310 u/L
CREATININE [3]: 0.16 mg/dL
GLUCOSE [3]: 160.33 mg/dL
LACTATE DEHYDROGENASE [3]: 149.33 u/L
LIPASE [3]: 7.33 u/L
PHOSPHORUS [3]: 12.07 mg/dL
POTASSIUM [3]: 5.7 MEQ/L
SODIUM [3]: 146.23 MEQ/L
TOTAL BILIRUBIN [3]: 0.17 mg/dL
TOTAL PROTEIN [3]: 6.17 G/DL
URIC ACID [3]: 1.67 mg/dL
